In ChEMBL document CHEMBL3576807, “Crystal Structures of mPGES-1 Inhibitor Complexes Form a Basis for the Rational Design of Potent Analgesic and Anti-Inflammatory Therapeutics” (J Med Chem, 2015):

Columns and labels:
[1] = target: T1, Prostaglandin E synthase (Homo sapiens, UniProt O14684); assay: Inhibition of recombinant human mPGES-1 expressed in human 293E cell microsomes using PGH2 as substrate assessed as PGE2 production after 2.5 mins by LC/MS analysis
T1 sequence (O14684 whole entry): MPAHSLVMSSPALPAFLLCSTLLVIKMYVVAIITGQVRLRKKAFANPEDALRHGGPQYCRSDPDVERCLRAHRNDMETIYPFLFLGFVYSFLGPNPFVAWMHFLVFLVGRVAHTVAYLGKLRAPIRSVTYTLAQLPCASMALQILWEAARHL

[2] = target: T2, Prostaglandin E synthase (Homo sapiens) (UniProt O14684); assay: Binding affinity to mPGES-1 (unknown origin) assessed as increase in protein aggregation temperature at 0.1 mM by differential static light scattering method
T2 sequence (whole entry): T1 sequence (O14684 whole entry)

[3] = target: T1, Prostaglandin E synthase; assay: Inhibition of purified mPGES-1 (1 to 152) (unknown origin) extracted from detergent-solubilized baculovirus-infected insect Sf9 cell membranes using PGH2 as substrate assessed as PGE2 production after 2.5 mins by LC/MS analysis

IC50 [1] | deltaT [2] | IC50 [3] | SMILES
216 nM | 7.3 °C | 2580 nM | CC(C)Oc1ccc(-n2c(C(=O)O)cc3cc(-c4ccc(C(C)(C)C)cc4)ccc32)cc1
7 nM | 7.8 °C | 3940 nM | Fc1cccc(Cl)c1-c1nc(-c2ccc(C#Cc3ccc(C(F)(F)F)cc3)nc2)c(Br)[nH]1
